According to ChEMBL document CHEMBL1201862, “PubChem BioAssay data set” (2004):
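Step 1: Grow cells in 96-well plates. Step 2: Expose to compound for 48 hours at 5 concentrations. Step 3: Interpolate endpoints linearly; if unreached, use highest concentration. GI50: concentration for 50% inhibition of growth.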 Activity calls are given as the source filed them. Cut-off read from the data, not from the text of the source: active = GI50 up to about 1.1 µM and inactive = higher.

Key:
Assay in all cases: inhibition of tumour cell growth, NCI panel, 48 h
NCI-H226 = test system: NCI-H226
786-0 = test system: 786-0
NCI-H460 = test system: NCI-H460
Hs-578T = test system: Hs-578T
RXF 393 = test system: RXF 393
HCT-15 = test system: HCT-15
SF-268 = test system: SF-268
A498 = test system: A498
LOX IMVI = test system: LOX IMVI
PC-3 = test system: PC-3
MDA-N = test system: MDA-N
SR = test system: SR
ACHN = test system: ACHN
A549 = test system: A549
SF-295 = test system: SF-295
DU-145 = test system: DU-145
HCC 2998 = test system: HCC 2998
U-251 = test system: U-251
NCI-H23 = test system: NCI-H23
SF-539 = test system: SF-539
EKVX = test system: EKVX
NCI-H522 = test system: NCI-H522
T47D = test system: T47D
TK-10 = test system: TK-10
CCRF-CEM = test system: CCRF-CEM
UACC-257 = test system: UACC-257
HOP-62 = test system: HOP-62
M14 = test system: M14
HCT-116 = test system: HCT-116
SW-620 = test system: SW-620
HT-29 = test system: HT-29
K562 = test system: K562
SN12C = test system: SN12C
SNB-75 = test system: SNB-75
NCI/ADR-RES = test system: NCI/ADR-RES
MOLT-4 = test system: MOLT-4
HL-60 = test system: HL-60
MCF7 = test system: MCF7
CAKI-1 = test system: CAKI-1
OVCAR-5 = test system: OVCAR-5
SK-MEL-28 = test system: SK-MEL-28
MDA-MB-231 = test system: MDA-MB-231
COLO 205 = test system: COLO 205
UO-31 = test system: UO-31
OVCAR-8 = test system: OVCAR-8
UACC-62 = test system: UACC-62
KM12 = test system: KM12
SK-OV-3 = test system: SK-OV-3
RPMI-8226 = test system: RPMI-8226
HOP-92 = test system: HOP-92
MDA-MB-435 = test system: MDA-MB-435
OVCAR-3 = test system: OVCAR-3
SNB-19 = test system: SNB-19
SK-MEL-5 = test system: SK-MEL-5
Malme-3M = test system: Malme-3M
SK-MEL-2 = test system: SK-MEL-2
IGROV-1 = test system: IGROV-1
OVCAR-4 = test system: OVCAR-4

Cc1ccc(CNc2ccc(Br)cc2)cc1
GI50 (NCI-H226): 60 µM (inactive) | GI50 (786-0): 48.3 µM (inactive) | GI50 (NCI-H460): 23.8 µM (inactive) | GI50 (Hs-578T): 70.6 µM (inactive) | GI50 (RXF 393): 23.1 µM (inactive) | GI50 (HCT-15): 10.4 µM | GI50 (SF-268): 31.9 µM (inactive) | GI50 (A498): 29.3 µM (inactive) | GI50 (LOX IMVI): 2.01 µM (inactive) | GI50 (PC-3): 31.6 µM (inactive) | GI50 (MDA-N): 25.4 µM (inactive) | GI50 (SR): 18.8 µM (inactive) | GI50 (ACHN): 11.4 µM (inactive) | GI50 (A549): 23.8 µM (inactive) | GI50 (SF-295): 47.8 µM (inactive) | GI50 (DU-145): 90.4 µM (inactive) | GI50 (HCC 2998): 20.6 µM (inactive) | GI50 (U-251): 28.1 µM (inactive) | GI50 (NCI-H23): 50.2 µM (inactive) | GI50 (SF-539): 36.8 µM (inactive) | GI50 (EKVX): 25.6 µM (inactive) | GI50 (NCI-H522): 17.7 µM (inactive) | GI50 (T47D): 29.5 µM (inactive) | GI50 (TK-10): 40 µM (inactive) | GI50 (CCRF-CEM): 11.5 µM (inactive) | GI50 (UACC-257): 24.9 µM (inactive) | GI50 (HOP-62): 83.2 µM (inactive) | GI50 (M14): 59.6 µM (inactive) | GI50 (HCT-116): 26.7 µM (inactive) | GI50 (SW-620): 37.5 µM (inactive) | GI50 (HT-29): 28.2 µM (inactive) | GI50 (K562): 22.9 µM (inactive) | GI50 (SN12C): 20.9 µM (inactive) | GI50 (SNB-75): 37.3 µM (inactive) | GI50 (NCI/ADR-RES): 29.4 µM (inactive) | GI50 (MOLT-4): 44.8 µM (inactive) | GI50 (HL-60): 25.2 µM (inactive) | GI50 (MCF7): 18.7 µM (inactive) | GI50 (CAKI-1): 31.6 µM (inactive) | GI50 (OVCAR-5): > 100 µM (inactive) | GI50 (SK-MEL-28): 87.5 µM (inactive) | GI50 (MDA-MB-231): 19.3 µM (inactive) | GI50 (COLO 205): 16.5 µM (inactive) | GI50 (UO-31): 13.5 µM (inactive) | GI50 (OVCAR-8): 16.3 µM (inactive) | GI50 (UACC-62): 4.41 µM (inactive) | GI50 (KM12): 16.3 µM (inactive) | GI50 (SK-OV-3): 53.8 µM (inactive) | GI50 (RPMI-8226): 3.44 µM (inactive) | GI50 (HOP-92): 15 µM (inactive) | GI50 (MDA-MB-435): 22.8 µM (inactive) | GI50 (OVCAR-3): 34.8 µM (inactive) | GI50 (SNB-19): > 100 µM (inactive) | GI50 (SK-MEL-5): 6.71 µM (inactive) | GI50 (Malme-3M): 21.5 µM (inactive)

CCC/C(Cl)=N/OC(NC(=O)OCC)(C(F)(F)F)C(F)(F)F
GI50 (NCI-H226): > 100 µM (inactive) | GI50 (786-0): 17.4 µM (inactive) | GI50 (SK-MEL-2): > 100 µM (inactive) | GI50 (NCI-H460): > 100 µM (inactive) | GI50 (Hs-578T): 34.5 µM (inactive) | GI50 (RXF 393): 19 µM (inactive) | GI50 (HCT-15): 21.6 µM | GI50 (SF-268): 19.9 µM (inactive) | GI50 (A498): > 100 µM (inactive) | GI50 (IGROV-1): 16.6 µM (inactive) | GI50 (LOX IMVI): 17.9 µM (inactive) | GI50 (PC-3): 98.9 µM (inactive) | GI50 (MDA-N): 20.5 µM (inactive) | GI50 (SR): 23.1 µM (inactive) | GI50 (ACHN): 18.3 µM (inactive) | GI50 (OVCAR-4): 17.6 µM (inactive) | GI50 (A549): > 100 µM (inactive) | GI50 (SF-295): > 100 µM (inactive) | GI50 (DU-145): > 100 µM (inactive) | GI50 (U-251): > 100 µM (inactive) | GI50 (NCI-H23): 25.1 µM (inactive) | GI50 (SF-539): 16.7 µM (inactive) | GI50 (EKVX): 20.9 µM (inactive) | GI50 (NCI-H522): > 100 µM (inactive) | GI50 (T47D): 45.4 µM (inactive) | GI50 (TK-10): 19 µM (inactive) | GI50 (CCRF-CEM): 22.1 µM (inactive) | GI50 (UACC-257): 20.6 µM (inactive) | GI50 (HOP-62): > 100 µM (inactive) | GI50 (M14): 17.9 µM (inactive) | GI50 (HCT-116): 19.4 µM (inactive) | GI50 (SW-620): 19.8 µM (inactive) | GI50 (HT-29): 22.4 µM (inactive) | GI50 (K562): 25.6 µM (inactive) | GI50 (SN12C): 16.7 µM (inactive) | GI50 (SNB-75): 82.4 µM (inactive) | GI50 (NCI/ADR-RES): 34.5 µM (inactive) | GI50 (MOLT-4): 32.5 µM (inactive) | GI50 (HL-60): 17.4 µM (inactive) | GI50 (MCF7): 23.6 µM (inactive) | GI50 (CAKI-1): 20.6 µM (inactive) | GI50 (OVCAR-5): 16.4 µM (inactive) | GI50 (SK-MEL-28): 26.5 µM (inactive) | GI50 (MDA-MB-231): 17.6 µM (inactive) | GI50 (COLO 205): 19.8 µM (inactive) | GI50 (UO-31): 19.6 µM (inactive) | GI50 (OVCAR-8): 33.9 µM (inactive) | GI50 (UACC-62): 48.1 µM (inactive) | GI50 (KM12): > 100 µM (inactive) | GI50 (RPMI-8226): 23.1 µM (inactive) | GI50 (HOP-92): 20.3 µM (inactive) | GI50 (MDA-MB-435): 18.6 µM (inactive) | GI50 (OVCAR-3): 15.8 µM (inactive) | GI50 (SNB-19): > 100 µM (inactive) | GI50 (SK-MEL-5): 23.8 µM (inactive) | GI50 (Malme-3M): 15.4 µM (inactive)

O=C(Nc1ccccc1)c1nn(-c2cc(S(=O)(=O)O)c([N+](=O)[O-])cc2Cl)[n+](-c2cc(S(=O)(=O)[O-])c([N+](=O)[O-])cc2Cl)n1
GI50 (NCI-H226): > 100 µM (inactive) | GI50 (786-0): > 100 µM (inactive) | GI50 (SK-MEL-2): > 100 µM (inactive) | GI50 (NCI-H460): > 100 µM (inactive) | GI50 (Hs-578T): > 100 µM (inactive) | GI50 (RXF 393): > 100 µM (inactive) | GI50 (HCT-15): > 100 µM | GI50 (SF-268): > 100 µM (inactive) | GI50 (IGROV-1): > 100 µM (inactive) | GI50 (LOX IMVI): 38.3 µM (inactive) | GI50 (PC-3): > 100 µM (inactive) | GI50 (MDA-N): > 100 µM (inactive) | GI50 (SR): > 100 µM (inactive) | GI50 (ACHN): > 100 µM (inactive) | GI50 (OVCAR-4): > 100 µM (inactive) | GI50 (A549): > 100 µM (inactive) | GI50 (SF-295): > 100 µM (inactive) | GI50 (DU-145): > 100 µM (inactive) | GI50 (HCC 2998): > 100 µM (inactive) | GI50 (U-251): > 100 µM (inactive) | GI50 (NCI-H23): > 100 µM (inactive) | GI50 (SF-539): > 100 µM (inactive) | GI50 (EKVX): > 100 µM (inactive) | GI50 (NCI-H522): > 100 µM (inactive) | GI50 (T47D): > 100 µM (inactive) | GI50 (TK-10): > 100 µM (inactive) | GI50 (CCRF-CEM): > 100 µM (inactive) | GI50 (UACC-257): > 100 µM (inactive) | GI50 (HOP-62): > 100 µM (inactive) | GI50 (M14): > 100 µM (inactive) | GI50 (HCT-116): > 100 µM (inactive) | GI50 (SW-620): > 100 µM (inactive) | GI50 (HT-29): > 100 µM (inactive) | GI50 (K562): > 100 µM (inactive) | GI50 (SN12C): > 100 µM (inactive) | GI50 (SNB-75): > 100 µM (inactive) | GI50 (NCI/ADR-RES): > 100 µM (inactive) | GI50 (MOLT-4): > 100 µM (inactive) | GI50 (HL-60): 40.8 µM (inactive) | GI50 (MCF7): > 100 µM (inactive) | GI50 (CAKI-1): > 100 µM (inactive) | GI50 (OVCAR-5): > 100 µM (inactive) | GI50 (SK-MEL-28): > 100 µM (inactive) | GI50 (MDA-MB-231): 43.6 µM (inactive) | GI50 (COLO 205): > 100 µM (inactive) | GI50 (UO-31): > 100 µM (inactive) | GI50 (UACC-62): > 100 µM (inactive) | GI50 (KM12): > 100 µM (inactive) | GI50 (SK-OV-3): > 100 µM (inactive) | GI50 (RPMI-8226): > 100 µM (inactive) | GI50 (MDA-MB-435): > 100 µM (inactive) | GI50 (OVCAR-3): > 100 µM (inactive) | GI50 (SNB-19): > 100 µM (inactive) | GI50 (SK-MEL-5): > 100 µM (inactive) | GI50 (Malme-3M): > 100 µM (inactive)
